Test results reported in US20170320837A1, “METHOD FOR TREATING INFLAMMATORY DISORDERS” (Synta Pharmaceuticals Corp., priority 2006, published 2017).
“Also recorded” adds a separate entry of the source.

Columns and labels:
glucocorticoid receptor [1] = assay: Glucocorticoid receptor levels in human PBMCs, renal cells and cancer cell lines, immunoblot (Example 115); format: cell-based
Experimental: Normal human renal proximal tubule epithelial cells and tumor cell lines of MV-4-11, Kasumi-1, and Hela were obtained from Cambrex Bioproducts and American Type Culture Collection, respectively. Cells were cultured with 10% fetal bovine serum/DMEM.
The whole blood samples from healthy human volunteer were collected and the PBMCs were isolated immediately as described in Example 116. Isolated human PBMCs were cultured in 10% fetal bovine serum/DMEM.
Human PBMCs, kasumi-1, My-4-11, Hela, and human renal proximal tubule epithelial cells were treated with DMSO (control), Compound 226, Compound 287, 17-DMAG at concentrations of 0, 5, 25, or 100 nM (in DMSO) for 16 hours. The cells were then collected and rinsed in ice-cold PBS and stored in liquid nitrogen until further analysis.
(§1) PBMC, renal and tumor cell pellets were prepared in Western lysis buffer (10 mmol/L HEPES, 42 mmol/L KCl, 5 mmol/L MgCl2, 0.1 mmol/L EDTA, 0.1. mmol/LEGTA, 1 mmol/L DTT, 1% Triton X-100, freshly supplemented with 1× protease inhibitor cocktail from Pierce, Rockford, Ill.). Lysate protein concentrations were quantified by bicinchoninic acid assay (Pierce) and normalized. Equal amounts of protein were loaded onto 10% NuPAGE Bis-Tris Gels (Invitrogen) and subsequently transferred onto polyvinylidene difluoride membranes. The membranes were blocked in 5% milk in TBST. Primary antibody of glucocorticoid receptor from Santa Cruz Biotechnology, Inc. was added and incubated at room temperature for 1 hour with shaking. The blots were washed extensively in TBST before secondary antibodies were added for overnight incubation at 4° C. with gentle shaking. The blots were again washed extensively and developed with SuperSignal West Femto substrate (Pierce).

glucocorticoid receptor [2] = assay: Glucocorticoid receptor levels in human PBMCs, immunoblot (Example 114); format: cell-based; settings: human PBMCs, 0, 1, 5, 25, or 100 nM, 16 hours
Experimental: (§2) The whole blood samples from healthy human volunteer and male SD rat were collected and the PBMCs were isolated immediately as follows. 5 ml of whole blood was diluted with an equal volume of sterile 1× PBS. The diluted blood was overlayed carefully into a sterile centrifuge tube without disturbing the bottom layer that containing 5 ml of Ficoll-paque plus density gradient solution. The layered blood was centrifuged at 1500×g for 30 minutes at room temperature. The middle thin layer containing PBMCs was carefully removed, transferred to another sterile centrifuge tube, and washed twice with PBS to remove […]. Isolated rat and human PBMCs were cultured in 10% fetal bovine serum/DMEM.
(§3) The rat and human PBMCs were treated with DMSO (control), Compound 226, Compound 287, or 17-DMAG at concentrations of 0, 1, 5, 25, or 100 nM (in DMSO) for 16 hours. The cells were then collected and rinsed in ice-cold PBS and stored in liquid nitrogen until further analysis.
as §1, with “PBMC” for “PBMC, renal and tumor cell pellets”, “0.1 mmol/L EGTA,” for “0.1. mmol/LEGTA,”, “glucocorticod” for “glucocorticoid”, “(Pierce). The immunoblot analysis was performed to measure the level of total GRs by Quantity One software from Bio-Rad.” for “(Pierce).”

glucocorticoid receptor [3] = assay: Glucocorticoid receptor levels in rat PBMCs, immunoblot; format: cell-based; settings: rat PBMCs, 0, 1, 5, 25, or 100 nM, 16 hours
Experimental: as §2, §3
as §1, with “PBMC” for “PBMC, renal and tumor cell pellets”, “0.1 mmol/L EGTA,” for “0.1. mmol/LEGTA,”, “glucocorticod” for “glucocorticoid”, “(Pierce). The immunoblot analysis was performed to measure the level of total GRs by Quantity One software from Bio-Rad.” for “(Pierce).”

glucocorticoid receptor [4] = assay: Glucocorticoid receptor levels in PBMCs of rats after four days of intravenous dosing, immunoblot; format: in vivo, Sprague-Dawley (SD) rats; settings: daily intravenously for four days, 17-DMAG 6 mg/kg, Paclitaxel 5 mg/kg, Compound 264 80 mg/kg, Compound 226 50 mg/kg
Experimental: The test compounds were administered daily intravenously via tail vein for four days. […] All rats were sacrificed at the study day 5. About 1-2 mL of blood samples were collected per animal. The blood samples were then pulled together as a group for PBMC isolation.

Her2 = assay: Degradation of Her2 in BT-474 cells, immunoblot (Method 1); format: cell-based, Human; settings: overnight
Experimental: Human high-Her2 breast carcinoma BT474 (HTB-20), SK-BR-3 (HTB-30) and MCF-7 breast carcinoma (HTB-22) from American Type Culture Collection, VA, USA were grown in Dulbecco's modified Eagle's medium with 4 mM L-glutamine and antibiotics (100 IU/ml penicillin and 100 ug/ml streptomycine; GibcoBRL). To obtain exponential cell growth, cells were trypsinized, counted and seeded at a cell density of 0.5×10^6 cells/ml regularly, every 3 days. All experiments were performed on day 1 after cell passage. • B. Degradation of Her2 in Cells After Treatment with a Compound of the Invention • 1. Method 1
BT-474 cells were treated with 0.5 μM, 2 μM, or 5 μM of 17AAG (a positive control) or 0.5 μM, 2 μM, or 5 μM of Compound 108 or Compound 49 overnight in DMEM medium. After treatment, each cytoplasmic sample was prepared from 1×10^6 cells by incubation of cell lysis buffer (#9803, cell Signaling Technology) on ice for 10 minutes. The resulting supernatant used as the cytosol fractions were dissolved with sample buffer for SDS-PAGE and run on a SDS-PAGE gel, blotted onto a nitrocellulose membrane by using semi-dry transfer. Non-specific binding to nitrocellulose was blocked with 5% skim milk in TBS with 0.5% Tween at room temperature for 1 hour, then probed with anti-Her2/ErB2 mAb (rabbit IgG, #2242, Cell Signaling) and anti-Tubulin (T9026, Sigma) as housekeeping control protein. HRP-conjugated goat anti-rabbit IgG (H+L) and HRP-conjugated horse anti-mouse IgG (H+L) were used as secondary Ab (#7074, #7076, Cell Signaling) and LumiGLO reagent, 20× Peroxide (#7003, Cell Signaling) was used for visualization.

Hsp90 protein = assay: Malachite Green Assay of ATPase activity of Hsp90 protein; format: biochemical
Experimental: Hsp90 protein was obtained from Stressgen (Cat #SPP-770). Assay buffer: 100 mM Tris-HCl, Ph 7.4, 20 mM KCl, 6 mM MgCl2. […] Malachite green reagent was added to the reaction. […] The plate was read by an ELISA reader with an absorbance at 620 nm.

GR (human recombinant) = biological target: T1, GR (human recombinant) (Homo sapiens, UniProt P04150); assay: GR competitive assay, fluorescence polarization with Fluormone GS1; format: binding; settings: tested up to 10 uM
T1 construct: purchased Invitrogen P2816
T1 sequence (P04150 1-777): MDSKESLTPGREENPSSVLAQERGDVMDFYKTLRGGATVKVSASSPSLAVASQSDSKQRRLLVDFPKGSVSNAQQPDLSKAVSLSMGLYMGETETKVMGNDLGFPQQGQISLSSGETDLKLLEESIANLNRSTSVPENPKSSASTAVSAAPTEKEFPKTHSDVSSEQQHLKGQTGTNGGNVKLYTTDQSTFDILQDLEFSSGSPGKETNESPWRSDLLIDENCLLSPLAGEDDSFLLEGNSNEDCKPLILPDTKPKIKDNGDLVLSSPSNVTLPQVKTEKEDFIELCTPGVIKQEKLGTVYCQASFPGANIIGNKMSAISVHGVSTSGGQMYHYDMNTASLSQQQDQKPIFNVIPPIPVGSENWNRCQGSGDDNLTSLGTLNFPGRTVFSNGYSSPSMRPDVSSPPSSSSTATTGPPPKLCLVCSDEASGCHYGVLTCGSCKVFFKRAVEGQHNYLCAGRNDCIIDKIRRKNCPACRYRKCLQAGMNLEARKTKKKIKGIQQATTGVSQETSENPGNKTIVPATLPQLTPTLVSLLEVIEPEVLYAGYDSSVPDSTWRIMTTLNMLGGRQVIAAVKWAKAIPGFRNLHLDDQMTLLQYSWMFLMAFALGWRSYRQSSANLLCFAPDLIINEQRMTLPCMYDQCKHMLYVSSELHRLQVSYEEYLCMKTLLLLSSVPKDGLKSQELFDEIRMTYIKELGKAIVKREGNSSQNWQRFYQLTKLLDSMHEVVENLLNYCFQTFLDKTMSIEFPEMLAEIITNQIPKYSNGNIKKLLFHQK
Experimental: To determine whether the compounds of the invention bind directly to the glucocorticoid receptor, GR competitive assay was performed using a kit from Invitrogen (Cat #P2816). GR (human recombinant) was added to a fluorescent glucocorticoid (Fluormone™ GS1) ligand with a test compound at various concentrations (a serial dilution of the test compound was done on a 96-well plate) and incubated for 2-4 hours in the dark. […] The shift in polarization value in the presence of a test compound was used to determine relative affinity of test compounds for glucocorticoid receptors. The buffer plus Fluormone™ GS1 and glucocorticoid receptor in the absent of s test compound was used as negative control presenting 0% competition. […] The IC50 was calculated based on the inhibition rate of binding activity of the testing compound.

glucocorticoid receptors = biological target: T2, glucocorticoid receptors (Homo sapiens, UniProt P04150); assay: Competitive binding assay with tritium labeled dexamethason in Hela S3 cells (legend of FIG. 3)
T2 construct: endogenous in cells; host or cells: HeLa S3
T2 sequence (P04150 1-777): T1 sequence (P04150 1-777)

[5] = Kasumi-1 AML cancer cells, 0, 5, 25, or 100 nM, 16 hrs
[6] = MV-4-11 AML cancer cells, 0, 5, 25, or 100 nM, 16 hrs
[7] = cancer cells as well as normal PBMCs and renal cells
[8] = human PBMCs, 0, 5, 25, or 100 nM, 16 hrs
[9] = human renal cells, 0, 5, 25, or 100 nM, 16 hrs

Question: For CO[C@H]1/C=C\C=C(/C)C(=O)NC2=CC(=O)C(NCCN(C)C)=C(C[C@@H](C)C[C@H](OC)[C@H](O)[C@@H](C)/C=C(\C)[C@@H]1OC(N)=O)C2=O [Compound 17-DMAG, 17-DMAG, reference compound], which “suppression of glucocorticoid receptors, cancer cells compared with normal cells” value (glucocorticoid receptor [1]) is on record?
Answer: more pronounced in cancer cell than in normal cells

Question: What about the “expression of glucocorticoid receptors” value (glucocorticoid receptor [1]; HeLa cells, 0, 5, 25, or 100 nM, 16 hrs) of the same molecule?
Answer: dose dependent decrease

Question: And the “expression of glucocorticoid receptors” value (glucocorticoid receptor [1]; [5])?
Answer: dose dependent decrease

Question: What about the “expression of glucocorticoid receptors” value (glucocorticoid receptor [1]; [6]) of the same molecule?
Answer: dose dependent decrease

Question: What about the “expression of glucocorticoid receptors” value (glucocorticoid receptor [1]; [7]) of the same molecule?
Answer: suppress the expression of glucocorticoid receptors

Question: What about the “expression of glucocorticoid receptors” value (glucocorticoid receptor [1]; [8]) of the same molecule?
Answer: dose dependent decrease

Question: And the “expression of glucocorticoid receptors” value (glucocorticoid receptor [1]; [9])?
Answer: dose dependent decrease

Question: And the “expression of glucocorticoid receptors” value (glucocorticoid receptor [2])?
Answer: dose dependent decrease; also recorded: decreased the expression of glucocorticoid receptor in a dose dependent manner

Question: And the “expression of glucocorticoid receptors” value (glucocorticoid receptor [3])?
Answer: dose dependent decrease; also recorded: decreased the expression of glucocorticoid receptor in a dose dependent manner

Question: What about the “expression of glucocorticoid receptor (GR) in isolated PBMC compared with vehicle” value (glucocorticoid receptor [4]) of the same molecule?
Answer: decreased

Question: Which results are given for CCc1cc(-c2nnc(S)n2-c2cccc3ccccc23)c(O)cc1O [Compound 49, 3-(2,4-Dihydroxy-5-ethyl-phenyl)-4-(naphthalen-1-yl)-5-mercapto-triazole]?
Answer: degradation of Her2 (Her2; 0.5 μM): partial degradated; degradation of Her2 (Her2; 2 μM): complete degradation; degradation of Her2 (Her2; 5 μM): complete degradation

Question: Oc1ccc(-c2nnc(S)n2-c2cccc3ccccc23)c(O)c1 [Compound 108, 3-(2,4-Dihydroxy-phenyl)-4-(naphthalen-1-yl)-5-mercapto-triazole] was tested. Which “ATPase activity of Hsp90” value (Hsp90 protein; 4 μM) did it give?
Answer: significant inhibition

Question: What about the “ATPase activity of Hsp90” value (Hsp90 protein; 40 μM) of the same molecule?
Answer: even greater inhibition of ATPase activity of Hsp90 than geldanamycin

Question: And the “degradation of Her2” value (Her2; 0.5 μM)?
Answer: partially degradated

Question: And the “degradation of Her2” value (Her2; 2 μM)?
Answer: partially degradated

Question: And the “degradation of Her2” value (Her2; 5 μM)?
Answer: almost completely degraded

Question: Which results are given for CCCN(C)c1cc(-n2c(S)nnc2-c2cc(C(C)C)c(O)cc2O)ccc1OC [Compound 264]?
Answer: IC50 (GR (human recombinant)): > 10 µM; expression of glucocorticoid receptor (GR) in isolated PBMC compared with vehicle (glucocorticoid receptor [4]): decreased

Question: How did the “suppression of glucocorticoid receptors, cancer cells compared with normal cells” value (glucocorticoid receptor [1]) turn out when CC(C)c1cc(-c2nnc(O)n2-c2ccc(N(C)CCN(C)C)cc2)c(O)cc1O [Compound 287] was run?
Answer: more pronounced in cancer cell than in normal cells

Question: What about the “expression of glucocorticoid receptors” value (glucocorticoid receptor [1]; [5]) of the same molecule?
Answer: dose dependent decrease

Question: What about the “expression of glucocorticoid receptors” value (glucocorticoid receptor [1]; [6]) of the same molecule?
Answer: dose dependent decrease

Question: And the “expression of glucocorticoid receptors” value (glucocorticoid receptor [1]; [7])?
Answer: suppress the expression of glucocorticoid receptors

Question: What about the “expression of glucocorticoid receptors” value (glucocorticoid receptor [1]; [8]) of the same molecule?
Answer: dose dependent decrease

Question: What about the “expression of glucocorticoid receptors” value (glucocorticoid receptor [1]; [9]) of the same molecule?
Answer: dose dependent decrease

Question: And the “expression of glucocorticoid receptors” value (glucocorticoid receptor [2])?
Answer: dose dependent decrease; also recorded: decreased the expression of glucocorticoid receptor in a dose dependent manner

Question: And the “expression of glucocorticoid receptors” value (glucocorticoid receptor [3])?
Answer: dose dependent decrease; also recorded: decreased the expression of glucocorticoid receptor in a dose dependent manner

Question: What does the source list for CC(=O)O[C@H]1C(=O)[C@@]2(C)[C@H]([C@H](OC(=O)c3ccccc3)[C@]3(O)C[C@H](OC(=O)[C@H](O)[C@@H](NC(=O)c4ccccc4)c4ccccc4)C(C)=C1C3(C)C)[C@]1(OC(C)=O)CO[C@@H]1C[C@@H]2O [Paclitaxel, reference compound]?
Answer: displacement of tritium labeled dexamethason (glucocorticoid receptors): did not displace the tritium labeled dexamethason; expression of glucocorticoid receptor (GR) in isolated PBMC compared with vehicle (glucocorticoid receptor [4]): decreased

Question: With C[C@@H]1C[C@H]2O[C@@H]2/C=C\C=C\C(=O)Cc2c(Cl)c(O)cc(O)c2C(=O)O1 [radicicol] as the molecule, how does the “displacement of tritium labeled dexamethason” value (glucocorticoid receptors) read?
Answer: did not displace the tritium labeled dexamethason
